The values below come from patent US12109204B2, “Methods for treating muscular dystrophies” (The Regents of the University of California, priority 2018, dated 2024).

Holding throughout (format): cell-based, murine
The test system of test [1] is hSSPN-EGFP myotubes (human sarcospan promoter reporter in C2C12). The experiment in a line: hSSPN-EGFP reporter myotube assay (high-content imaging). Here is the method:
C2C12 immortalized murine myoblasts cultured in growth media consisting of DMEM (Gibco) with 20% Fetal Bovine Serum (Sigma-Aldrich) at 37° C. with 5% CO2 were transfected with the hSSPN-EGFP or hSSPN-Luciferase linearized plasmids using Lipofectamine 3000 Transfection Reagent (Thermo Fisher Scientific). Transfected cells were selected using 800 μg/ml of G418 (Sigma-Aldrich) for 4 weeks to generate stable cell lines expressing reporter protein under control of the human SSPN promoter.
hSSPN-EGFP myoblasts were seeded at 500 cells per well in 50 μl of growth media in 384-well black, clear bottom microplates (Greiner) using a Multidrop 384 (Thermo Fisher Scientific) and incubated for 3 days. Upon reaching confluency, the growth media was replaced with 50 μl of differentiation media consisting of DMEM with 2% horse serum (Sigma-Aldrich) using an EL406 combination washer dispenser (Biotek). At day 2 of differentiation, the media on the cells was aspirated, left with a residual volume of 10 μl, and replaced with 30 μl of fresh differentiation media. 0.5 μl of small molecule in DMSO or DMSO alone (for vehicle and positive control wells) was added to each well using a Biomek Fx (Beckman). To ensure proper mixing of the DMSO, 50 μl of additional differentiation media was added to all wells except the positive control treated wells, which instead received 50 μl of media containing insulin transferrin selenium (ITS, Gibco) to reach a final concentration of 1% ITS. The final concentration of drug in each treated well was 5.5 μM in 0.55% DMSO and 0.55% DMSO for vehicle and positive control treated wells. After 48 hours of incubation, the media was replaced with Fluorobrite DMEM (Gibco) and each plate was imaged using ImageXpress Micro Confocal High Content Imaging System (Molecular Devices). The fluorescent intensity of imaged cells was determined using MetaXpress Analysis software (Molecular Devices). Analysis setting were as follows: top hat (size: 12, filter shape: circle), adaptive threshold (source: top hat, minimum width: 10, maximum width: 800, intensity above local background: 500), filter mask (filter type: minimum area filter, minimum value: 500). […]

In test [2] the test system is SSPN, sarcospan. Description: SSPN gene expression by qPCR in C2C12 wild-type myotubes. To be noted: 1-10 μM, 48 hours, normalized to β-actin (FIG. 10c). Here is the method:
(§1) RNA from myotubes treated for 48 hours was extracted from cells using Trizol-based (Thermo Fisher Scientific) phase separation. RNA concentrations were determined using a NanoDrop 1000 (Thermo Fisher Scientific) and 750 ng of RNA in a 20 μl reaction was reverse transcribed using iScript cDNA synthesis (Bio-Rad) with the following cycling conditions: 25° C. for 5 minutes, 42° C. for 30 minutes, 85° C. for 5 minutes. For quantitative PCR, SsoFast EvaGreen Supermix (Bio-Rad), 400 nM of each optimized forward and reverse primer (for primer descriptions see Table 1), and cDNA corresponding to 37.5 ng RNA were used to amplify cDNA measured by Applied Biosystems 7300 (Thermo Fisher Scientific) with the following reaction conditions: 55° C. for 2 minutes, 95° C. for 2 minutes, 40 cycles of 95° C. for 10 seconds and 62° C. for 30 seconds, and dissociation stage. Each sample was run in triplicate. Data was analyzed using the ddCT method and normalized to reference gene, GAPDH or β-actin, with vehicle-treated samples serving as the calibrator (relative expression of vehicle control=1). C2C12 cells (American Type Culture Collection) were grown at 37° C. with 5% CO2 in growth media containing DMEM (Gibco) with 20% FBS (Sigma-Aldrich). Upon reaching confluency, the media was replaced with differentiation media containing DMEM with 2% horse serum (Sigma-Aldrich). Conditionally immortalized H2K mdx myoblast cells with a nonsense mutation in exon 23 of dystrophin were a gift from Terrance Partridge, Ph.D. (Children's National Medical Center, Washington, D.C.). Cells were allowed to proliferate on 0.01% gelatin (Sigma-Aldrich) coated plates at 33° C. with 5% CO2 with growth media containing DMEM, 20% HI-FBS (Invitrogen), 2% L-glutamine (Sigma-Aldrich), 2% chicken embryo extract (Accurate Chemical), 1% penicillin-streptomycin (Sigma-Aldrich), and 20U/ml of fresh interferon gamma (Gibco). For differentiation, H2K mdx myoblasts were seeded on plates coated with 0.1 mg/ml matrigel (Corning) diluted in DMEM and grown in proliferation conditions. […]
(In qPCR the cycle at which signal appears reflects the starting amount.)

Test [3] has as its system SSPN, sarcospan. The experiment in a line: SSPN gene expression by qPCR in mdx myotubes. To be noted: for SSPN gene expression over vehicle: 1-10 μM, 48 hours, normalized to β-actin (FIG. 10d). On the procedure: as §1
For another test, the system named is UTRN, utrophin. Description: UTRN gene expression by qPCR in C2C12 wild-type myotubes. The conditions noted are these: C2C12 wild-type myotubes, 48 hours, normalized to β-actin (FIG. 12a). On the procedure: as §1, with “(Sigma-Aldrich).” for “(Sigma-Aldrich). Conditionally immortalized H2K mdx myoblast cells with a nonsense mutation in exon 23 of dystrophin were a gift from Terrance Partridge, Ph.D. (Children's National Medical Center, Washington, D.C.). Cells were allowed to proliferate on 0.01% gelatin (Sigma-Aldrich) coated plates at 33° C. with 5% CO2 with growth media containing DMEM, 20% HI-FBS (Invitrogen), 2% L-glutamine (Sigma-Aldrich), 2% chicken embryo extract (Accurate Chemical), 1% penicillin-streptomycin (Sigma-Aldrich), and 20U/ml of fresh interferon gamma (Gibco). For differentiation, H2K mdx myoblasts were seeded on plates coated with 0.1 mg/ml matrigel (Corning) diluted in DMEM and grown in proliferation conditions.”

For a further test, the system named is MYOG, myogenin. The experiment in a line: MYOG gene expression by qPCR in C2C12 wild-type myotubes. To be noted: 48 hours, normalized to β-actin (FIG. 12a). Here is the method: as §1, with “(Sigma-Aldrich).” for “(Sigma-Aldrich). Conditionally immortalized H2K mdx myoblast cells with a nonsense mutation in exon 23 of dystrophin were a gift from Terrance Partridge, Ph.D. (Children's National Medical Center, Washington, D.C.). Cells were allowed to proliferate on 0.01% gelatin (Sigma-Aldrich) coated plates at 33° C. with 5% CO2 with growth media containing DMEM, 20% HI-FBS (Invitrogen), 2% L-glutamine (Sigma-Aldrich), 2% chicken embryo extract (Accurate Chemical), 1% penicillin-streptomycin (Sigma-Aldrich), and 20U/ml of fresh interferon gamma (Gibco). For differentiation, H2K mdx myoblasts were seeded on plates coated with 0.1 mg/ml matrigel (Corning) diluted in DMEM and grown in proliferation conditions.”

Test [4] relates to hSSPN-EGFP myotubes (human sarcospan promoter reporter in C2C12). The experiment in a line: hSSPN-EGFP reporter myotube assay (high-content imaging). The conditions noted are these: doses between 3.9 nm to 1 μM, 48 hours (FIG. 10a).

Take `CCOC(=O)C1=C(C)NC(C)=C(C(=O)OC)C1c1cccc(Cl)c1Cl` (centres unmarked) [Felodipine, 5-O-ethyl 3-O-methyl 4-(2,3-dichlorophenyl)-2,6-dimethyl-1,4-dihydropyridine-3,5-dicarboxylate]: the “fluorescence intensity over vehicle, primary screen hit call” value in test [1] (primary screen of 3,200 molecules, 5.5 μM, 48 hours, n=1, hit cutoff 1.4-fold) is recorded as “hits”. The “hSSPN-EGFP RFU, Plate 1” value in test [1] (retest of screen hits at 5.5 μM, Plate 1, n=24 per plate) came to 1.4 RFU. In addition, the “hSSPN-EGFP RFU, Plate 2” value in test [1] (retest of screen hits at 5.5 μM, Plate 2, n=24 per plate) came to 1.4 RFU. The “SSPN gene expression over vehicle” value in the test with SSPN, sarcospan [2] is “increases sarcospan gene expression”; with SSPN, sarcospan [2] (listed as felodipine) it was “increased over vehicle”; in the test with SSPN, sarcospan [3], “increases sarcospan gene expression”; in the test on SSPN, sarcospan [3] (listed as felodipine), “increase in SSPN gene expression”. For the same molecule, the “SSPN gene expression relative to vehicle” value with SSPN, sarcospan [3] (48h, normalized to GAPDH, n=2 (FIG. 11d)) is given as “only increased sarcospan levels”. In the test on UTRN, utrophin, the utrophin gene expression result is “increases”. In the test with MYOG, myogenin, the myogenin gene expression entry is reported as “increases”. In addition, the “hSSPN-EGFP reporter activity, counterscreen” value in test [4] is “increased activity”.
